Where a name gives a salt, the structure may show the parent alone.
Assays:
[1] = Inhibition of LPS-induced nitric oxide production in […] BV-2 cells at 20 uM measured after 24 hrs by Griess reagent assay relative to control; format: functional, Mus musculus; settings: for inhibition at 20 µM: BV-2, 24 h
[2] = Cytotoxicity against LPS-induced […] BV-2 cells assessed as cell viability at 20 uM measured after 24 hrs by MTT assay relative to control; format: cell-based; settings: for viability at 24 h, 20 µM: LPS-induced BV-2 cells, read-out: Activity
[3] = test system: BV-2; test: Inhibition of LPS-induced nitric oxide production in […] BV-2 cells assessed as decrease in iNOS mRNA expression pretreated with LPS for 1 hr and measured after 6 hrs by RT-PCR analysis; format: functional, cell-based; settings: dose 2-20 µM, time 7.0 hrs
[4] = test system: BV-2; test: Inhibition of LPS-induced nitric oxide production in […] BV-2 cells assessed as decrease in iNOS protein expression pretreated with LPS for 1 hr and measured after 18 hrs by immunoblot analysis; format: functional, cell-based; settings: dose 2-20 µM, time 19.0 hrs
[5] = test system: BV-2; test: (§1) Inhibition of LPS-induced nitric oxide production in […] BV-2 cells measured after 24 hrs by Griess reagent assay; format: functional, cell-based
[6] = as §1; format: functional, cell-based; settings: BV-2, 24 h
[7] = Inhibition of LPS-induced nitric oxide production in […] BV-2 cells at 12.5 to 50 uM measured after 24 hrs by Griess reagent assay relative to control; format: functional; settings: dose 12.5-50 µM
[8] = Cytotoxicity against LPS-induced […] BV-2 cells assessed as cell viability at 12.5 to 50 uM measured after 24 hrs by MTT assay; format: cell-based; settings: bv-2, 24 h, dose 12.5-50 µM
[9] = cells; settings: Homo sapiens, BV-2, 24 h, read-out: INH
Description: Inhibition of LPS-induced nitric oxide production in human BV-2 cells at 10 uM measured after 24 hrs by Griess reagent assay relative to control

Molecule O=C(CCN1CCOCC1)c1ccc(Cl)cc1 has an inhibition at 20 µM [1] of 40.3% and a viability at 24 h, 20 µM [2] of 100%.
O=C(CCN1CCOCC1)c1ccc(C(F)(F)F)cc1 showed an inhibition at 20 µM [1] of 50.3% and a viability at 24 h, 20 µM [2] of 96.1%.
For O=C(CCN1CCOCC1)c1ccccc1C(F)(F)F, the inhibition at 20 µM [1] was 78.3%, the inhibition [3] was “Dose-dependent effect” and the inhibition [4] was “Dose-dependent effect”. For the same molecule, the viability at 24 h, 20 µM [2] was 100%, the inhibition [5] was “Dose-dependent effect” and the IC50 [6] was 8.6 µM.
CN(C)c1ccc(C(=O)CCN2CCOCC2)cc1 showed an inhibition at 20 µM [1] of 32.8% and a viability at 24 h, 20 µM [2] of 100%.
With Nc1ccc(C(=O)CCN2CCOCC2)cc1 the inhibition at 20 µM [1] was 25.2% and the viability at 24 h, 20 µM [2] was 100%.
In the case of Cl.O=C(CCN1CCOCC1)c1ccccc1, the “inhibition (INH)” value [1] is reported as 29.3%, the “inhibition (INH)” value [7] is reported as 49% and the Activity ([2]; bv-2, 24 h, 20 µM) is reported as 96.7%. The IC50 [6] was over 50 µM and the Activity [8] was “Non-Toxic”.
Work on O=C(CCN1CCOCC1)c1ccc(Br)cc1 yielded an inhibition at 20 µM [1] of 41.6% and a viability at 24 h, 20 µM [2] of 100%.
In the case of O=C(CC(=O)N1CCOCC1)c1ccccc1, the inhibition at 20 µM [1] is reported as 20.1% and the viability at 24 h, 20 µM [2] is reported as 99.7%.
O=C(Cc1ccccc1)CN1CCOCC1 gave an inhibition at 20 µM [1] of 17.4% and a viability at 24 h, 20 µM [2] of 100%.
In the case of O=C(CN1CCOCC1)C(=O)c1ccccc1, the inhibition at 20 µM [1] is reported as 19.2% and the viability at 24 h, 20 µM [2] is reported as 100%.
O=C(CCN1CCOCC1)c1cccc(C(F)(F)F)c1 gave an inhibition at 20 µM [1] of 44.6% and a viability at 24 h, 20 µM [2] of 100%.
For O=C(CCN1CCOCC1)c1ccc(O)cc1, the inhibition at 20 µM [1] was 26.5% and the viability at 24 h, 20 µM [2] was 99%.
Molecule Cc1ccc(C(=O)CCN2CCOCC2)cc1 has an inhibition at 20 µM [1] of 36% and a viability at 24 h, 20 µM [2] of 100%.
CNCCC(Oc1ccc(C(F)(F)F)cc1)c1ccccc1 (centres undefined) [FLUOXETINE HYDROCHLORIDE] gave an inhibition at 10 µM [9] of 31.2%.
O=C(CCN1CCOCC1)c1ccccc1 showed an inhibition at 20 µM [1] of 31.8% and a viability at 24 h, 20 µM [2] of 99.8%.
Work on O=C(CCN1CCOCC1)c1ccc(F)cc1 yielded an inhibition at 20 µM [1] of 35.2% and a viability at 24 h, 20 µM [2] of 95%.
In the case of COc1ccc(C(=O)CCN2CCOCC2)cc1, the inhibition at 20 µM [1] is reported as 33.3% and the viability at 24 h, 20 µM [2] is reported as 100%.
Work on O=C(CCN1CCOCC1)c1ccc([N+](=O)[O-])cc1 yielded an inhibition at 20 µM [1] of 73.1% and a viability at 24 h, 20 µM [2] of 98.3%.
Molecule O=C(CCN1CCOCC1)c1ccc(I)cc1 has an inhibition at 20 µM [1] of 41.6% and a viability at 24 h, 20 µM [2] of 89.4%.

— ChEMBL document CHEMBL4706652, “Synthesis of 4-(3-oxo-3-phenylpropyl)morpholin-4-ium chloride analogues and their inhibitory activities of nitric oxide production in lipopolysaccharide-induced BV2 cells” (Bioorg Med Chem Lett, 2021)
